Measured values published in publication PMC7992156 (ACS Omega, 2021).
pKd: −log10 of the molar value. Counter-ions that a name gives are not always drawn.

Target: T1, irisin (Homo sapiens, UniProt Q8NAU1)
T1 sequence (Q8NAU1 80-191): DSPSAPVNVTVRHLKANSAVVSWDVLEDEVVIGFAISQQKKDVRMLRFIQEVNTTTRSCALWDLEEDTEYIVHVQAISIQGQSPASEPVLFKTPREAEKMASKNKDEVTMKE
Assay: isothermal titration calorimetry
Assay type: binding

Q: How did the pKd turn out when `CCN(C)C(=O)Oc1cccc([C@H](C)N(C)C)c1` [RT, rivastigmine tartrate] was run?
A: Its pKd is 4.84.
